Converted amounts (≈) assume the structure as drawn.
What was measured:
A549 (human lung cancer) = assay: MTT growth inhibition of human solid tumor cells, 72 h; format: cell-based
Procedure: (§1) Human solid tumor cell lines: Hep-2 (laryngeal carcinoma), A549 (human lung cancer), CaES-17 (esophageal cancer cell), PC-3 (prostate cancer), CNE (nasopharyngeal carcinoma cell), and SK-OV-3 (ovarian cancer cell), all of which are purchased from China Center For Type Culture Collection; RKO (human colon adenocarcinoma cell), MGC 803 (human gastric cancer cell), MG63 (osteosarcoma) and U87 MG (malignant glioma cell), all of which are purchased from Fuxiang Bio-tech Co. Ltd., Shanghai, China; PANC-1 (pancreatic cancer), Huh7 (human liver cancer cell), Becap37 (human breast cancer cell), and Hela (human cervical cancer cell), all of which are donated by Cancer Research Institute of Zhejiang University, China.
(§2) Obtaining 4000 well-growing human solid tumor cells and inoculating them into wells of a 96-well cell culture plate. The culture medium is DMEM High Glucose cell culture medium containing 10% fetal bovine serum. The plate is placed in a carbon dioxide cell incubator (5% CO2) at 37° C. and incubated for 24 hours. After adding the homoharringtonine derivatives of different concentration and mixing uniformly, the plate is placed in a carbon dioxide cell incubator (5% CO2) at 37° C. and incubated for 72 hours. Then the viable cell concentration is determined by the MTT method and the cell viability (%) after drug treatment is calculated. In this experiment, the cell viability of control group (not treated with any compound) is set as 100%.

[1] = test system: CNE (nasopharyngeal carcinoma cell); assay: as above; format: cell-based; details: MTT
Procedure: as §1, §2

PC-3 (prostate cancer) = assay: as above; format: cell-based; details: MTT
Procedure: as §1, §2

[2] = test system: Becap37 (human breast cancer cell); assay: as above; format: cell-based
Procedure: as §1, §2

[3] = test system: PANC-1 (pancreatic cancer); assay: as above; format: cell-based
Procedure: as §1, §2

[4] = test system: Huh7 (human liver cancer cell); assay: as above; format: cell-based
Procedure: as §1, §2

[5] = test system: CaES-17 (esophageal cancer cell); assay: as above; format: cell-based
Procedure: as §1, §2

MG63 (osteosarcoma) = assay: as above; format: cell-based
Procedure: as §1, §2

[6] = test system: U87 MG (malignant glioma cell); assay: as above; format: cell-based
Procedure: as §1, §2

[7] = test system: RKO (human colon adenocarcinoma cell); assay: as above; format: cell-based; details: MTT
Procedure: as §1, §2

[8] = test system: MGC 803 (human gastric cancer cell); assay: as above; format: cell-based
Procedure: as §1, §2

[9] = test system: Hep-2 (laryngeal carcinoma); assay: as above; format: cell-based
Procedure: as §1, §2

[10] = test system: SK-OV-3 (ovarian cancer cell); assay: as above; format: cell-based
Procedure: as §1, §2

[11] = test system: Hela (human cervical cancer cell); assay: as above; format: cell-based; details: MTT
Procedure: as §1, §2

[12] = test system: RPMI8226 (multiple myeloma); assay: MTT growth inhibition of multiple myeloma cells, 72 h; format: cell-based, human
Procedure: Multiple myeloma and lymphoma cell lines: RPMI8226 (multiple myeloma), purchased from Fuxiang Bio-tech Co. Ltd., Shanghai, China.
(§3) Obtaining 6000 well-growing leukemia cells and inoculating them into wells of a 96-well cell culture plate. The culture medium is the 1640 cell culture medium containing 10% fetal bovine serum. After adding the homoharringtonine derivatives of different concentrations and mixing uniformly, placing the plate in a carbon dioxide cell incubator (5% CO2) at 37° C. and incubated for 72 hours. Then the viable cell concentration is determined by the MTT method. In this experiment, the cell viability in control group (not treated with any compound) is set as 100%. On such basis, the cell viability (%) after treatment and the 50% inhibiting concentration of the compound for the leukemia cell growth at 72 hours (IC50 value of 72 hours) are calculated.

[13] = test system: K562/adr (drug-resistant, chronic myeloid leukemia, CML); assay: MTT growth inhibition of leukemia cells, 72 h; format: cell-based, human; details: MTT
Description: (§4) Leukemia cell lines: leukemia cell lines: K562/adr (drug-resistant, chronic myeloid leukemia, CML), NB4 (acute promyelocytic leukemia, AML), Kasumi-1 (acute myeloid leukemia M2 type, AML-M2), Jurkat (acute lymphoblastic leukemia, ALL), all of which are donated by Cancer Research Institute of Zhejiang University, China; and H9 (acute lymphoblastic leukemia, ALL), which is purchased from China Center for Type Culture Collection (CCTCC).
(§5) Reagents: The standard sample of homoharringtonine (HHT) is purchased from Taihua Natural Plant Pharmaceutical Co., Ltd., Shaanxi, China, the homoharringtonine derivatives of the present invention.
as §3

[14] = test system: Jurkat (acute lymphoblastic leukemia, ALL); assay: MTT growth inhibition of leukemia cells, 72 h; format: cell-based, human
Description: as §4, §5, §3

[15] = test system: Kasumi-1 (acute myeloid leukemia M2 type, AML-M2); assay: MTT growth inhibition of leukemia cells, 72 h; format: cell-based, human
Description: as §4, §5, §3

[16] = test system: NB4 (acute promyelocytic leukemia, AML); assay: MTT growth inhibition of leukemia cells, 72 h; format: cell-based, human; details: MTT
Description: as §4, §5, §3

[17] = test system: H9 (acute lymphoblastic leukemia, ALL); assay: MTT growth inhibition of leukemia cells, 72 h; format: cell-based, human; details: MTT
Description: as §4, §5, §3

## COC(=O)C[C@@](CCCC(C)(C)OC(C)=O)(OC(C)=O)C(=O)O[C@@H]1C(OC)=C[C@]23CCCN2CCc2cc4c(cc2[C@H]13)OCO4 [BS-HH-001, 2,6-diacetylhomoharringtonine]
A549 (human lung cancer); Homo sapiens, A549
  IC50: 0.03 µg/mL (≈ 0.0476 µM)
  IC90: > 16 µg/mL
[1]; Homo sapiens
  IC50: 0.062 µg/mL (≈ 0.0985 µM)
  IC90: > 16 µg/mL
PC-3 (prostate cancer); Homo sapiens
  IC50: 0.029 µg/mL (≈ 0.0461 µM)
  IC90: > 16 µg/mL
[2]; Homo sapiens
  IC50: 0.015 µg/mL (≈ 0.0238 µM)
  IC90: 14 µg/mL (≈ 22.2 µM)
[3]; Homo sapiens, PANC-1, MTT
  IC50: 0.036 µg/mL (≈ 0.0572 µM)
  IC90: > 16 µg/mL
[4]; Homo sapiens, Huh-7
  IC50: 0.016 µg/mL (≈ 0.0254 µM)
  IC90: 0.13 µg/mL (≈ 0.206 µM)
[5]; Homo sapiens, CaEs17
  IC50: 0.062 µg/mL (≈ 0.0985 µM)
  IC90: > 16 µg/mL
MG63 (osteosarcoma); Homo sapiens, MG-63, MTT
  IC50: 0.02 µg/mL (≈ 0.0318 µM)
  IC90: 2.4 µg/mL (≈ 3.81 µM)
[6]; Homo sapiens, U-87 MG
  IC50: 0.018 µg/mL (≈ 0.0286 µM)
  IC90: 0.11 µg/mL (≈ 0.175 µM)
[7]; Homo sapiens
  IC50: 0.007 µg/mL (≈ 0.0111 µM)
  IC90: 0.02 µg/mL (≈ 0.0318 µM)
[8]; Homo sapiens, MGC-803
  IC50: 0.03 µg/mL (≈ 0.0476 µM)
  IC90: 0.66 µg/mL (≈ 1.05 µM)
[9]; Homo sapiens, HEp-2
  IC50: 0.026 µg/mL (≈ 0.0413 µM)
  IC90: > 16 µg/mL
[10]; Homo sapiens, SK-OV-3, MTT
  IC50: 0.12 µg/mL (≈ 0.191 µM)
  IC90: > 16 µg/mL
[11]; Homo sapiens, HeLa
  IC50: 0.026 µg/mL (≈ 0.0413 µM)
  IC90: > 16 µg/mL
[12]
  anti-RPMI8226 (multiple myeloma) effectiveness: particularly effective
[12]; Homo sapiens, RPMI-8226, MTT
  IC50: 0.009 µg/mL (≈ 0.0143 µM)
  IC90: 0.12 µg/mL (≈ 0.191 µM)
[13]; Homo sapiens, K562/Adr
  IC50: 0.062 µg/mL (≈ 0.0985 µM)
  IC90: 1.18 µg/mL (≈ 1.87 µM)
[14]; Homo sapiens, Jurkat
  IC50: 0.012 µg/mL (≈ 0.0191 µM)
  IC90: ≥ 16 µg/mL
[15]; Homo sapiens, Kasumi 1, MTT
  IC50: 0.006 µg/mL (≈ 0.00953 µM)
  IC90: 0.021 µg/mL (≈ 0.0333 µM)
[16]; Homo sapiens
  IC50: 0.01 µg/mL (≈ 0.0159 µM)
  IC90: 0.022 µg/mL (≈ 0.0349 µM)
[17]; Homo sapiens
  IC50: 0.02 µg/mL (≈ 0.0318 µM)
  IC90: 0.05 µg/mL (≈ 0.0794 µM)

## COC(=O)C[C@@](CCCC(C)(C)OC(=O)/C=C/c1ccco1)(OC(=O)/C=C/c1ccco1)C(=O)O[C@@H]1C(OC)=C[C@]23CCCN2CCc2cc4c(cc2[C@H]13)OCO4 [BS-HH-0022]
A549 (human lung cancer)
  IC50 A549: 0.23 µg/mL (≈ 0.293 µM)
  IC90 A549: >16 µg/mL
[1]
  IC50 CNE: 0.21 µg/mL (≈ 0.267 µM)
  IC90 CNE: 16 µg/mL (≈ 20.4 µM)
PC-3 (prostate cancer)
  IC50 PC-3: 1.37 µg/mL (≈ 1.74 µM)
  IC90 PC-3: >16 µg/mL
[2]
  IC50 Becap37: 0.23 µg/mL (≈ 0.293 µM)
  IC90 Becap37: 11.14 µg/mL (≈ 14.2 µM)
[3]; MTT
  IC50 PANC-1: 0.69 µg/mL (≈ 0.878 µM)
  IC90 PANC-1: 15.56 µg/mL (≈ 19.8 µM)
[4]
  IC50 Huh7: 0.13 µg/mL (≈ 0.165 µM)
  IC90 Huh7: 0.99 µg/mL (≈ 1.26 µM)
[5]
  IC50 CaES-17: 0.61 µg/mL (≈ 0.776 µM)
  IC90 CaES-17: >16 µg/mL
MG63 (osteosarcoma); MTT
  IC50 MG 63: 0.24 µg/mL (≈ 0.305 µM)
  IC90 MG 63: 3.25 µg/mL (≈ 4.14 µM)
[6]
  IC50 U87 MG: 0.16 µg/mL (≈ 0.204 µM)
  IC90 U87 MG: 0.59 µg/mL (≈ 0.751 µM)
[7]
  IC50 RKO: 0.044 µg/mL (≈ 0.056 µM)
  IC90 RKO: 0.35 µg/mL (≈ 0.445 µM)
[8]
  IC50 MGC 803: 0.16 µg/mL (≈ 0.204 µM)
  IC90 MGC 803: 0.76 µg/mL (≈ 0.967 µM)
[9]
  IC50 Hep-2: 0.22 µg/mL (≈ 0.28 µM)
  IC90 Hep-2: >16 µg/mL
[10]; MTT
  IC50 SK-OV-3: 1.33 µg/mL (≈ 1.69 µM)
  IC90 SK-OV-3: >16 µg/mL
[11]
  IC50 Hela: 0.33 µg/mL (≈ 0.42 µM)
  IC90 Hela: 9.38 µg/mL (≈ 11.9 µM)
[12]; MTT
  IC50 RPMI8226: 0.12 µg/mL (≈ 0.153 µM)
  IC90 RPMI8226: 0.63 µg/mL (≈ 0.802 µM)
[13]
  IC50 K562/adr: 0.41 µg/mL (≈ 0.522 µM)
  IC90 K562/adr: 1.84 µg/mL (≈ 2.34 µM)
[14]
  IC50 Jurkat: 0.088 µg/mL (≈ 0.112 µM)
  IC90 Jurkat: 10.13 µg/mL (≈ 12.9 µM)
[15]; MTT
  IC50 Kasumi-1: 0.063 µg/mL (≈ 0.0802 µM)
  IC90 Kasumi-1: 0.22 µg/mL (≈ 0.28 µM)
[16]
  IC50 NB4: 0.08 µg/mL (≈ 0.102 µM)
  IC90 NB4: 0.25 µg/mL (≈ 0.318 µM)
[17]
  IC50 H9: 0.19 µg/mL (≈ 0.242 µM)
  IC90 H9: 0.4 µg/mL (≈ 0.509 µM)

— patent publication US9428519B2, “Acylated derivative of homoharringtonine, preparation method therefor, and application thereof” (HANGZHOU BENSHENG PHARMACEUTICAL CO., LTD., priority 2011, dated 2016)
